Reference: ChEMBL document CHEMBL1201862, “PubChem BioAssay data set” (2004)
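The compound was tested at five concentrations on cells cultured in 96-well plates, with a 48-hour exposure period. At the GI50, growth is halved.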 Active and inactive are the calls of the source. Rule as the data show it: active = GI50 up to about 1.1 µM and inactive = higher.

Legend:
Experiment in all cases: NCI tumour cell line growth inhibition, 48 h
BT-549 = test system: BT-549
SF-539 = test system: SF-539
UACC-62 = test system: UACC-62
HT-29 = test system: HT-29
LOX IMVI = test system: LOX IMVI
DU-145 = test system: DU-145
HOP-62 = test system: HOP-62
CAKI-1 = test system: CAKI-1
OVCAR-8 = test system: OVCAR-8
NCI/ADR-RES = test system: NCI/ADR-RES
A549 = test system: A549
SW-620 = test system: SW-620
SK-OV-3 = test system: SK-OV-3
T47D = test system: T47D
SF-295 = test system: SF-295
COLO 205 = test system: COLO 205
OVCAR-5 = test system: OVCAR-5
SR = test system: SR
MDA-MB-435 = test system: MDA-MB-435
Malme-3M = test system: Malme-3M
A498 = test system: A498
U-251 = test system: U-251
SK-MEL-2 = test system: SK-MEL-2
HCT-116 = test system: HCT-116
NCI-H460 = test system: NCI-H460
UO-31 = test system: UO-31
RPMI-8226 = test system: RPMI-8226
MDA-MB-231 = test system: MDA-MB-231
NCI-H23 = test system: NCI-H23
MCF7 = test system: MCF7
IGROV-1 = test system: IGROV-1
UACC-257 = test system: UACC-257
SF-268 = test system: SF-268
M14 = test system: M14
NCI-H226 = test system: NCI-H226
KM12 = test system: KM12
EKVX = test system: EKVX
TK-10 = test system: TK-10
786-0 = test system: 786-0
OVCAR-4 = test system: OVCAR-4
ACHN = test system: ACHN
OVCAR-3 = test system: OVCAR-3
HCT-15 = test system: HCT-15
K562 = test system: K562
SK-MEL-5 = test system: SK-MEL-5
PC-3 = test system: PC-3
SNB-19 = test system: SNB-19
HCC 2998 = test system: HCC 2998
RXF 393 = test system: RXF 393
SN12C = test system: SN12C
HOP-92 = test system: HOP-92
MOLT-4 = test system: MOLT-4
NCI-H522 = test system: NCI-H522
SNB-75 = test system: SNB-75
HL-60 = test system: HL-60
SK-MEL-28 = test system: SK-MEL-28
Hs-578T = test system: Hs-578T
CCRF-CEM = test system: CCRF-CEM

CC/C(=C/OC)P1(=O)OC(C)(C)CN1C(C)(C)C (stereo unspecified)
GI50 (BT-549): > 100 µM (inactive)
GI50 (SF-539): > 100 µM (inactive)
GI50 (UACC-62): > 100 µM (inactive)
GI50 (HT-29): > 100 µM (inactive)
GI50 (LOX IMVI): > 100 µM (inactive)
GI50 (DU-145): > 100 µM (inactive)
GI50 (HOP-62): > 100 µM (inactive)
GI50 (CAKI-1): > 100 µM (inactive)
GI50 (OVCAR-8): > 100 µM (inactive)
GI50 (NCI/ADR-RES): > 100 µM (inactive)
GI50 (A549): > 100 µM (inactive)
GI50 (SW-620): > 100 µM (inactive)
GI50 (SK-OV-3): > 100 µM (inactive)
GI50 (T47D): > 100 µM (inactive)
GI50 (SF-295): > 100 µM (inactive)
GI50 (COLO 205): > 100 µM (inactive)
GI50 (OVCAR-5): > 100 µM (inactive)
GI50 (SR): > 100 µM (inactive)
GI50 (MDA-MB-435): > 100 µM (inactive)
GI50 (Malme-3M): > 100 µM (inactive)
GI50 (A498): > 100 µM (inactive)
GI50 (U-251): > 100 µM (inactive)
GI50 (SK-MEL-2): > 100 µM (inactive)
GI50 (HCT-116): > 100 µM (inactive)
GI50 (NCI-H460): > 100 µM (inactive)
GI50 (UO-31): > 100 µM (inactive)
GI50 (RPMI-8226): > 100 µM (inactive)
GI50 (MDA-MB-231): > 100 µM (inactive)
GI50 (NCI-H23): > 100 µM (inactive)
GI50 (MCF7): > 100 µM (inactive)
GI50 (IGROV-1): > 100 µM (inactive)
GI50 (UACC-257): > 100 µM (inactive)
GI50 (SF-268): > 100 µM (inactive)
GI50 (M14): > 100 µM (inactive)
GI50 (NCI-H226): > 100 µM (inactive)
GI50 (KM12): > 100 µM (inactive)
GI50 (EKVX): > 100 µM (inactive)
GI50 (TK-10): > 100 µM (inactive)
GI50 (786-0): > 100 µM (inactive)
GI50 (OVCAR-4): > 100 µM (inactive)
GI50 (ACHN): > 100 µM (inactive)
GI50 (OVCAR-3): > 100 µM (inactive)
GI50 (HCT-15): > 100 µM
GI50 (K562): > 100 µM (inactive)
GI50 (SK-MEL-5): > 100 µM (inactive)
GI50 (PC-3): > 100 µM (inactive)
GI50 (SNB-19): > 100 µM (inactive)
GI50 (HCC 2998): > 100 µM (inactive)

Cc1[nH]nc(-c2ccon2)c1N=O
GI50 (RXF 393): 34.3 µM (inactive)
GI50 (BT-549): 18.6 µM (inactive)
GI50 (SF-539): 17.9 µM (inactive)
GI50 (UACC-62): 17.9 µM (inactive)
GI50 (SN12C): 26.7 µM (inactive)
GI50 (HT-29): 18.2 µM (inactive)
GI50 (HOP-92): 14.2 µM (inactive)
GI50 (DU-145): 21.4 µM (inactive)
GI50 (HOP-62): 21 µM (inactive)
GI50 (CAKI-1): 25.8 µM (inactive)
GI50 (OVCAR-8): 17 µM (inactive)
GI50 (NCI/ADR-RES): 19.8 µM (inactive)
GI50 (MOLT-4): 2 µM (inactive)
GI50 (A549): 23.7 µM (inactive)
GI50 (SW-620): 21.2 µM (inactive)
GI50 (SK-OV-3): 26.3 µM (inactive)
GI50 (T47D): 25.1 µM (inactive)
GI50 (SF-295): 18.7 µM (inactive)
GI50 (COLO 205): 19.9 µM (inactive)
GI50 (NCI-H522): 20 µM (inactive)
GI50 (OVCAR-5): 19.3 µM (inactive)
GI50 (SR): 10 µM (inactive)
GI50 (MDA-MB-435): 20.5 µM (inactive)
GI50 (Malme-3M): 20.7 µM (inactive)
GI50 (A498): > 100 µM (inactive)
GI50 (U-251): 17.9 µM (inactive)
GI50 (SK-MEL-2): 34.3 µM (inactive)
GI50 (HCT-116): 23.1 µM (inactive)
GI50 (NCI-H460): 36.1 µM (inactive)
GI50 (UO-31): 19.8 µM (inactive)
GI50 (RPMI-8226): 3.78 µM (inactive)
GI50 (MDA-MB-231): 16.8 µM (inactive)
GI50 (SNB-75): 32.2 µM (inactive)
GI50 (NCI-H23): 19.3 µM (inactive)
GI50 (MCF7): 22.9 µM (inactive)
GI50 (IGROV-1): 23 µM (inactive)
GI50 (HL-60): 12.1 µM (inactive)
GI50 (UACC-257): 17.4 µM (inactive)
GI50 (SF-268): 20 µM (inactive)
GI50 (M14): 20.8 µM (inactive)
GI50 (NCI-H226): 14.6 µM (inactive)
GI50 (KM12): 21 µM (inactive)
GI50 (EKVX): 16.7 µM (inactive)
GI50 (SK-MEL-28): 20.2 µM (inactive)
GI50 (TK-10): 18.7 µM (inactive)
GI50 (786-0): 20.4 µM (inactive)
GI50 (OVCAR-4): 17.5 µM (inactive)
GI50 (ACHN): 15 µM (inactive)
GI50 (OVCAR-3): 18.4 µM (inactive)
GI50 (HCT-15): 18.2 µM
GI50 (K562): 18.5 µM (inactive)
GI50 (SK-MEL-5): 18.2 µM (inactive)
GI50 (PC-3): 25.3 µM (inactive)
GI50 (SNB-19): 26.9 µM (inactive)
GI50 (Hs-578T): 26.9 µM (inactive)

COc1ccc(CNc2nc3ccccc3nc2-c2cccs2)cc1
GI50 (RXF 393): 23.8 µM (inactive)
GI50 (BT-549): 22.1 µM (inactive)
GI50 (SF-539): > 100 µM (inactive)
GI50 (UACC-62): 38.4 µM (inactive)
GI50 (HT-29): 18.9 µM (inactive)
GI50 (HOP-92): 16.6 µM (inactive)
GI50 (CCRF-CEM): 25.9 µM (inactive)
GI50 (LOX IMVI): 12.2 µM (inactive)
GI50 (DU-145): > 100 µM (inactive)
GI50 (HOP-62): > 100 µM (inactive)
GI50 (CAKI-1): 15.1 µM (inactive)
GI50 (OVCAR-8): 28.9 µM (inactive)
GI50 (NCI/ADR-RES): 17.4 µM (inactive)
GI50 (MOLT-4): 5.31 µM (inactive)
GI50 (A549): 33.1 µM (inactive)
GI50 (SW-620): 51.9 µM (inactive)
GI50 (SK-OV-3): 43.4 µM (inactive)
GI50 (T47D): 22.9 µM (inactive)
GI50 (SF-295): 46.7 µM (inactive)
GI50 (COLO 205): 38.1 µM (inactive)
GI50 (NCI-H522): 23.5 µM (inactive)
GI50 (OVCAR-5): > 100 µM (inactive)
GI50 (SR): 15.6 µM (inactive)
GI50 (MDA-MB-435): 27.4 µM (inactive)
GI50 (Malme-3M): 50.1 µM (inactive)
GI50 (A498): 29.4 µM (inactive)
GI50 (U-251): 28.8 µM (inactive)
GI50 (HCT-116): 26.7 µM (inactive)
GI50 (NCI-H460): 24.2 µM (inactive)
GI50 (UO-31): 15.4 µM (inactive)
GI50 (RPMI-8226): 21.5 µM (inactive)
GI50 (MDA-MB-231): 23.6 µM (inactive)
GI50 (SNB-75): > 100 µM (inactive)
GI50 (NCI-H23): 62.4 µM (inactive)
GI50 (MCF7): 28.3 µM (inactive)
GI50 (IGROV-1): 68.9 µM (inactive)
GI50 (HL-60): 61.7 µM (inactive)
GI50 (UACC-257): 31.2 µM (inactive)
GI50 (SF-268): > 100 µM (inactive)
GI50 (NCI-H226): > 100 µM (inactive)
GI50 (KM12): 28.9 µM (inactive)
GI50 (EKVX): 97.9 µM (inactive)
GI50 (SK-MEL-28): > 100 µM (inactive)
GI50 (TK-10): 94.2 µM (inactive)
GI50 (786-0): 43.9 µM (inactive)
GI50 (OVCAR-4): 29.9 µM (inactive)
GI50 (ACHN): 57.5 µM (inactive)
GI50 (OVCAR-3): 37.4 µM (inactive)
GI50 (HCT-15): 35.4 µM
GI50 (K562): 23.6 µM (inactive)
GI50 (SK-MEL-5): 23.8 µM (inactive)
GI50 (HCC 2998): 45.6 µM (inactive)
GI50 (Hs-578T): 23.4 µM (inactive)
